As usually defined, the EC50 is the concentration needed to bring the measured effect to its halfway point.

The target of the assay is T1, STING (Homo sapiens, UniProt Q86WV6, G230A/H232R/R293Q/R71H).
T1 construct: host or cells: THP1-Dual KO-IFNAR2 cells
T1 sequence (Q86WV6 whole entry R71H/G230A/H232R/R293Q): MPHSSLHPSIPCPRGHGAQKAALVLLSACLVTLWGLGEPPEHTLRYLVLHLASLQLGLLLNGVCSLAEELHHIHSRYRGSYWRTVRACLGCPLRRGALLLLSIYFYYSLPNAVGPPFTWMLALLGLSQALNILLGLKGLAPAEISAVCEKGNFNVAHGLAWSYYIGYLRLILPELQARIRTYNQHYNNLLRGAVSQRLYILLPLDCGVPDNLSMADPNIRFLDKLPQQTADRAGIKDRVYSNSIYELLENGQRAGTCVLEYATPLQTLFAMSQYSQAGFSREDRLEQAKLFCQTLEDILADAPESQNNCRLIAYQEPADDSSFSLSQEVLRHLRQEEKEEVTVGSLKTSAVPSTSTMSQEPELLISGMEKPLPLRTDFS
Kind of assay: STING reporter assay: luciferase reporter activity in THP1-Dual KO-IFNAR2 cells stimulated with 2′3′cGAMP. The assay is classed as cell-based. To be noted: 15 μM 2′3′cGAMP, 24h, read-out: hSTING EC50. The protocol:
STING pathway activation by the compounds described herein was measured using THP 1-Dual™ cells (KO-IFNAR2).
THP1-Dual™ KO-IFNAR2 Cells (obtained from invivogen) were maintained in RPMI, 10% FCS, 5 ml P/S, 2 mM L-glut, 10 mM Hepes, and 1 mM sodium pyruvate. Compounds were spotted in empty 384 well tissue culture plates (Greiner 781182) by Echo for a final concentration of 0.0017-100 μM. Cells were plated into the TC plates at 40 μL per well, 2×10E6 cells/mL. For activation with STING ligand, 2′3′cGAMP (MW 718.38, obtained from Invivogen), was prepared in Optimem media.
The following solutions were prepared for each 1×384 plate: • Solution A: 2 mL Optimem with one of the following stimuli: • 60 μL of 10 mM 2′3′cGAMP→150 μM stock • Solution B: 2 mL Optimem with 60 μL Lipofectamine 2000→Incubate 5 min at RT
2 mL of solution A and 2 ml Solution B was mixed and incubated for 20 min at room temperature (RT). 20 μL of transfection solution (A+B) was added on top of the plated cells, with a final 2′3′cGAMP concentration of 15 μM. The plates were then centrifuged immediately at 340 g for 1 minute, after which they were incubated at 37° C., 5% CO2, >98% humidity for 24h. Luciferase reporter activity was then measured. EC50 values were calculated by using standard methods known in the art.
Luciferase reporter assay: 10 μL of supernatant from the assay was transferred to white 384-plate with flat bottom and squared wells. One pouch of QUANTI-Luc™ Plus was dissolved in 25 mL of water. 100 μL of QLC Stabilizer per 25 mL of QUANTI-Luc™ Plus solution was added. 50 μL of QUANTI-Luc™ Plus/QLC solution per well was then added. Luminescence was measured on a Platereader (e.g., Spectramax I3X (Molecular Devices GF3637001)).
Luciferase reporter activity was then measured. EC50 values were calculated by using standard methods known in the art.
As for `CCC(=O)Nc1c[nH]c2ccc(-c3cnn(Cc4cccc(C(F)(F)F)c4)c3)cc12` [Compound 127, N-(5-(1-(3-(trifluoromethyl)benzyl)-1H-pyrazol-4-yl)-1H-indol-3-yl)propionamide], the EC50 fell in the range of 200 to 1000 nM.

Regarding `CC(C)(C#N)C(=O)Nc1c[nH]c2ccc(-c3cnn(-c4ccc(C(F)(F)F)cc4)c3)cc12` [Compound 228, 2-cyano-2-methyl-N-(5-(1-(4-(trifluoromethyl)phenyl)-1H-pyrazol-4-yl)-1H-indol-3-yl)propanamide], the EC50 is 1000 to 5000 nM.

With `O=C(Nc1c[nH]c2ccc(-c3cnn(-c4ccc(C(F)(F)F)cc4)c3)cc12)C1CS(=O)(=O)C1` [Compound 213, N-(5-(1-(4-(trifluoromethyl)phenyl)-1H-pyrazol-4-yl)-1H-indol-3-yl)thietane-3-carboxamide 1,1-dioxide], the EC50 fell in the range of 200 to 1000 nM.

Regarding `COCCCC(=O)Nc1c[nH]c2ccc(-c3cnn(-c4ccc(C(F)(F)F)cc4)c3)cc12` [Compound 177, 4-methoxy-N-(5-(1-(4-(trifluoromethyl)phenyl)-1H-pyrazol-4-yl)-1H-indol-3-yl)butanamide], the EC50 is 40 to 200 nM.

`CC(=O)NC(C(=O)Nc1c[nH]c2ccc(-c3cnn(-c4ccc(C(F)(F)F)cc4)c3)cc12)C(C)C` (stereo not drawn) [Compound 218, 2-acetamido-3-methyl-N-(5-(1-(4-(trifluoromethyl)phenyl)-1H-pyrazol-4-yl)-1H-indol-3-yl)butanamide]: the EC50 was 1000 to 5000 nM.

Turning to `CCC(=O)Nc1c[nH]c2ccc(C3=CCCCC3)cc12` [Compound 141, N-(5-(cyclohex-1-en-1-yl)-1H-indol-3-yl)propionamide], the EC50 lay in the range of 5000 to 100000 nM.

On to `CCC(=O)Nc1c[nH]c2cc(F)c(-c3cnn(-c4ccc(CC)cc4)c3)cc12` [Compound 103, N-(5-(1-(4-ethylphenyl)-1H-pyrazol-4-yl)-6-fluoro-1H-indol-3-yl)propionamide], for which the EC50 was 200 to 1000 nM.

In the case of `O=C(Nc1c[nH]c2ccc(-c3cnn(-c4ccc(C(F)(F)F)cc4)c3)cc12)C1(O)CCCCC1` [Compound 187, 1-hydroxy-N-(5-(1-(4-(trifluoromethyl)phenyl)-1H-pyrazol-4-yl)-1H-indol-3-yl)cyclohexane-1-carboxamide], the half-maximal effective concentration (EC50) was in the range of 200 to 1000 nM.

`O=C(COC(F)(F)F)Nc1c[nH]c2ccc(-c3cnn(-c4ccc(C(F)(F)F)cc4)c3)cc12` [Compound 212, 2-(trifluoromethoxy)-N-(5-(1-(4-(trifluoromethyl)phenyl)-1H-pyrazol-4-yl)-1H-indol-3-yl)acetamide]: the EC50 fell in the range of 200 to 1000 nM.

`O=C1NCCC1C(=O)Nc1c[nH]c2ccc(-c3cnn(-c4ccc(C(F)(F)F)cc4)c3)cc12` (stereo not drawn) [Compound 210, 2-oxo-N-(5-(1-(4-(trifluoromethyl)phenyl)-1H-pyrazol-4-yl)-1H-indol-3-yl)pyrrolidine-3-carboxamide]: the EC50 was 5000 to 100000 nM.

With `COCCOCCC(=O)Nc1c[nH]c2ccc(-c3cnn(-c4ccc(C(F)(F)F)cc4)c3)cc12` [Compound 206, 3-(2-methoxyethoxy)-N-(5-(1-(4-(trifluoromethyl)phenyl)-1H-pyrazol-4-yl)-1H-indol-3-yl)propanamide], the EC50 was in the range of 200 to 1000 nM.

Turning to `O=C(Nc1c[nH]c2ccc(-c3cnn(-c4ccc(C(F)(F)F)cc4)c3)cc12)c1ncco1` [Compound 272, N-(5-(1-(4-(trifluoromethyl)phenyl)-1H-pyrazol-4-yl)-1H-indol-3-yl)oxazole-2-carboxamide], the EC50 was in the range of 1000 to 5000 nM.

As for `Cc1cc(C(=O)Nc2c[nH]c3ccc(-c4cnn(-c5ccc(C(F)(F)F)cc5)c4)cc23)no1` [Compound 274, 5-methyl-N-(5-(1-(4-(trifluoromethyl)phenyl)-1H-pyrazol-4-yl)-1H-indol-3-yl)isoxazole-3-carboxamide], the EC50 is 200 to 1000 nM.

As to `CC(=O)Nc1c[nH]c2ccc(-c3cnn(-c4ccc(Cl)c(Cl)c4)c3)cc12` [Compound 168, N-(5-(1-(3,4-dichlorophenyl)-1H-pyrazol-4-yl)-1H-indol-3-yl)acetamide], the EC50 was in the range of 200 to 1000 nM.

Consider `CC(=O)Nc1c[nH]c2ccc(-c3cnn([C@@H](C)c4cccc(C(F)(F)F)c4)c3)cc12` [Compound 175, (S)-N-(5-(1-(1-(3-(trifluoromethyl)phenyl)ethyl)-1H-pyrazol-4-yl)-1H-indol-3-yl)acetamide], for which the EC50 lay within 200 to 1000 nM.

Regarding `CC(c1cccc(C(F)(F)F)c1)n1cc(-c2ccc3[nH]cc(NC(=O)C4CCC4)c3c2)cn1` (stereo not drawn) [Compound 257, N-(5-(1-(1-(3-(trifluoromethyl)phenyl)ethyl)-1H-pyrazol-4-yl)-1H-indol-3-yl)cyclobutanecarboxamide], the EC50 fell in the range of 200 to 1000 nM.

As to `CCC(=O)Nc1c[nH]c2ccc(-c3cnn(-c4ccc(CC)cc4)c3)nc12` [Compound 164, N-(5-(1-(4-ethylphenyl)-1H-pyrazol-4-yl)-1H-pyrrolo[3,2-b]pyridin-3-yl)propionamide], the EC50 was 5000 to 100000 nM.

For the molecule `O=C(COCC(F)(F)F)Nc1c[nH]c2ccc(-c3cnn(-c4ccc(C(F)(F)F)cc4)c3)cc12` [Compound 207, 2-(2,2,2-trifluoroethoxy)-N-(5-(1-(4-(trifluoromethyl)phenyl)-1H-pyrazol-4-yl)-1H-indol-3-yl)acetamide], the EC50 was in the range of 200 to 1000 nM.

With `CC(=O)Nc1c[nH]c2ccc(-c3cnn(C(C)c4cccc(C(F)(F)F)c4)c3)cc12` (stereo not drawn) [Compound 179, N-(5-(1-(1-(3-(trifluoromethyl)phenyl)ethyl)-1H-pyrazol-4-yl)-1H-indol-3-yl)acetamide], the EC50 was 200 to 1000 nM.

As for `CCC(=O)Nc1c[nH]c2ccc(-c3cnn(-c4ccc(COC)cc4)c3)cc12` [Compound 104, N-(5-(1-(4-(methoxymethyl)phenyl)-1H-pyrazol-4-yl)-1H-indol-3-yl)propionamide], the EC50 was 200 to 1000 nM.

Turning to `CC(C)(N)CC(=O)Nc1c[nH]c2ccc(-c3cnn(-c4ccc(C(F)(F)F)cc4)c3)cc12` [Compound 189, 3-amino-3-methyl-N-(5-(1-(4-(trifluoromethyl)phenyl)-1H-pyrazol-4-yl)-1H-indol-3-yl)butanamide], the EC50 is 5000 to 100000 nM.

`O=C(Nc1c[nH]c2ccc(-c3cnn(-c4ccc(C(F)(F)F)cc4)c3)cc12)C1CCC1` [Compound 111, N-(5-(1-(4-(trifluoromethyl)phenyl)-1H-pyrazol-4-yl)-1H-indol-3-yl)cyclobutanecarboxamide]: the 50% effective concentration (EC50) lay in the range of 200 to 1000 nM.

Regarding `CN1CCC(C(=O)Nc2c[nH]c3ccc(-c4cnn(-c5ccc(C(F)(F)F)cc5)c4)cc23)C1=O` (stereo not drawn) [Compound 211, 1-methyl-2-oxo-N-(5-(1-(4-(trifluoromethyl)phenyl)-1H-pyrazol-4-yl)-1H-indol-3-yl)pyrrolidine-3-carboxamide], the EC50 lay within 1000 to 5000 nM.

`O=C(Nc1c[nH]c2ccc(-c3cnn(Cc4ccc(C(F)(F)F)nc4)c3)cc12)C1CCC1` [Compound 191, N-(5-(1-((6-(trifluoromethyl)pyridin-3-yl)methyl)-1H-pyrazol-4-yl)-1H-indol-3-yl)cyclobutanecarboxamide]: the concentration giving a half-maximal response (EC50) was in the range of 200 to 1000 nM.

As to `CCc1ccc(-n2cc(-c3ccc4[nH]cc(NC(=O)COC)c4c3)cn2)cc1` [Compound 106, N-(5-(1-(4-ethylphenyl)-1H-pyrazol-4-yl)-1H-indol-3-yl)-2-methoxyacetamide], the EC50 is 40 to 200 nM.

`CCc1ccc(-n2cc(-c3ccc4[nH]cc(NC(=O)CCC#N)c4c3)cn2)cc1` [Compound 107, 3-cyano-N-(5-(1-(4-ethylphenyl)-1H-pyrazol-4-yl)-1H-indol-3-yl)propanamide]: the EC50 lay in the range of 200 to 1000 nM.

In the case of `Cc1cc(C(=O)Nc2c[nH]c3ccc(-c4cnn(-c5ccc(C(F)(F)F)cc5)c4)cc23)on1` [Compound 271, 3-methyl-N-(5-(1-(4-(trifluoromethyl)phenyl)-1H-pyrazol-4-yl)-1H-indol-3-yl)isoxazole-5-carboxamide], the EC50 lay within 200 to 1000 nM.

In the case of `CC(C)n1cc(C(=O)Nc2c[nH]c3ccc(-c4cnn(-c5ccc(C(F)(F)F)cc5)c4)cc23)nn1` [Compound 283, 1-isopropyl-N-(5-(1-(4-(trifluoromethyl)phenyl)-1H-pyrazol-4-yl)-1H-indol-3-yl)-1H-1,2,3-triazole-4-carboxamide], the EC50 is 200 to 1000 nM.

`CCC(=O)Nc1c[nH]c2ccc(-c3cnn(-c4ccc(CC)cc4)c3)cc12` [Compound 151, N-(5-(1-(4-ethylphenyl)-1H-pyrazol-4-yl)-1H-indol-3-yl)propionamide]: the EC50 is 40 to 200 nM.

Consider `O=C(Nc1c[nH]c2ncc(-c3cnn(-c4ccc(C(F)(F)F)cc4)c3)cc12)C1CCC1` [Compound 251, N-(5-(1-(4-(trifluoromethyl)phenyl)-1H-pyrazol-4-yl)-1H-pyrrolo[2,3-b]pyridin-3-yl)cyclobutanecarboxamide], for which the EC50 was 5000 to 100000 nM.

These data come from patent publication US20230365553A1, “COMPOUNDS AND COMPOSITIONS FOR TREATING CONDITIONS ASSOCIATED WITH STING ACTIVITY” (IFM Due, Inc., priority 2020, published 2023).
